The subject of assay [1] is E. coli ATCC 25922. Nature of the assay: Broth microdilution MIC/MBC. The format is cell-based. The settings on record: Escherichia coli, ATCC25922, MHB, 5 × 10^5 CFU/mL, 16 h at 37 °C, no visible growth, three independent repetitions, two technical replicates. How it is done: Escherichia coli ATCC 25922, Escherichia coli ATCC 11229, Pseudomonas aeruginosa ATCC 27853, Aeromonas salmonicida subsp. salmonicida 69 R3, Aeromonas salmonicida subsp. salmonicida 69 R5 [53], Micrococcus luteus LMA-272, and Listeria ivanovii ATCC 19119 were used for antibacterial activity testing. Details on these strains used in this study are included in Table 6. All these strains were cultivated in tryptic soy broth (TSB) (BD, Sparks, NV, USA), except for L. ivanovii, which was grown in brain heart infusion (BHI) broth (BD, Sparks, USA). All bacterial strains were grown at 37 °C, except for the two A. salmonicida strains, which were incubated at 20 °C. Strains were sub-cultured at least twice, before being used for antimicrobial and membrane permeabilization assays.
MICs for bacterial strains were determined using a broth microdilution protocol. Two-fold dilutions of peptide solutions ([…]) were made in Mueller Hinton Broth (MHB) (Oxoid, Basingstoke, UK) in 96-well polypropylene clear round bottom microplates (Corning Inc., Corning, NY, USA). […] Final volumes in the wells were of 200 μL. […] After reading of the MICs, 20 μL of the wells that were showing no visible bacterial growth were inoculated on tryptic soy agar (TSA) (or BHI agar for Listeria ivanovii) plates, which were then incubated at the appropriate temperature for 24 h. […]
A general note: Broth dilution looks for growth in wells or tubes with falling amounts of substance.

The test system of a further assay is Z. rouxii LL12_088. Nature of the assay: Antifungal microdilution MIC/MFC. The format is cell-based, Zygosaccharomyces rouxii. The note with it: 99.9% inhibition of yeast growth by CFU counts on PDA. The method, then: Mucor racemosus LMA-722, Paecilomyces sp. 5332-9a, and Aspergillus niger 3071-13 were used as filamentous fungal strains. Saccharomyces boulardii 27169, Rhodotorula mucilaginosa 27173, and Zygosaccharomyces rouxii LL12_088 were used as yeast strains. Fungal strains were sub-cultured on potato dextrose agar (PDA) (BD, Sparks, USA) plates, at 25 °C, at least two times, before being used for antimicrobial and membrane permeabilization testing.
MICs were also tested using microdilutions in 96-well plates for fungal strains. The protocol used was roughly the same as that described for bacterial strains. RPMI 1640 (Sigma-Aldrich, St. Louis, MO, USA), buffered with MOPS (Fisher Scientific, Fair Lawn, NJ, USA) (0.164 M, pH = 7), was used instead of MHB, according to CLSI guidelines. Potato dextrose broth was used for microplates inoculated with Z. rouxii yeast. For filamentous fungi, conidia were harvested from 7-day cultures and diluted in buffered RPMI 1640 to obtain a suspension containing 5 × 10^4 CFU/mL, as assessed with a COUNTESS II FL automatic cell counter (Thermo Fisher Scientific, Waltham, MA, USA). […] Plates were then incubated for 24 (yeasts) or 48 (filamentous fungi) h at 25 °C. […] Natamycin (Sigma-Aldrich, St. Louis, MO, USA) was used as positive control for all fungal strains. […]

For assay [2], the system named is E. coli ATCC 25922. Set-up: method as in PMID 1605597. The settings on record: cited from earlier work.
A further assay deals with P. aeruginosa ATCC 27853. More on the design: method as in PMID 1605597. The settings on record: cited from earlier work.

≈ marks a conversion by molar mass, not a printed value. Ends that are not written are not given here.

`O=C(N[C@H](CO)[C@H](O)c1ccc([N+](=O)[O-])cc1)C(Cl)Cl` [Chloramphenicol]: in the assay with E. coli ATCC 25922 [1], the lowest concentration to inhibit growth (MIC) was 4 µg/mL (≈ 12.4 µM).

Take HGKKVEIVAIND [Analog 4]: the “MFC, Z. rouxii LL12_088” value against Z. rouxii LL12_088 is on record as “n.f.a. (No fungicidal activity)”.

For the molecule magainin-2, in the assay with E. coli ATCC 25922 [2], the “MIC, E. coli ATCC 25922” value was 50 µg/mL. Also, the “MIC, P. aeruginosa ATCC 27853” value with P. aeruginosa ATCC 27853 was 50 µg/mL.

The MIC is the lowest concentration that inhibits growth of the organism.

Values taken from publication PMC8944596, “Determination of the Relationships between the Chemical Structure and Antimicrobial Activity of a GAPDH-Related Fish Antimicrobial Peptide and Analogs Thereof” (Antibiotics, 2022).
